This passage reports IC50 results from BindingDB's records for doi:10.1021/jm990205m (University of Michigan, 2000).

The nature of the first assay: Antiviral activity was tested in cells acutely infected with HIV-1 RT (reverse transcriptase).
On to `CN1N=C(N)c2cn([C@@H]3O[C@H](CO)C[C@H]3O)c3ncnc1c23`, for which the IC50 (as a rule, the midpoint of a concentration-inhibition curve) was over 100 µM.
In the case of `C[C@H]1OC(n2cc3c4c(ncnc42)N(C)N=C3N)[C@H](O)[C@@H]1O` (stereo partly specified), the half-inhibitory concentration (IC50) is over 100 µM.
Still for that read-out and setting: with `CN1N=C(N)c2cn(C3C=C[C@@H](CO)O3)c3ncnc1c23` (stereo partly specified) [[5-(3-Amino-5-methyl-5H-1,4,5,6,8-pentaaza-acenaphthylen-1-yl)-2,5-dihydro-furan-2-yl]-methanol] the figure was 100 µM; with `CN1N=C(N)c2cn([C@H]3CC[C@@H](CO)O3)c3ncnc1c23`, 21 µM; with `CN1N=C(N)c2cn(C3C[C@@H](O)[C@@H](CO)O3)c3ncnc1c23` (stereo partly specified) [5-(3-Amino-5-methyl-5H-1,4,5,6,8-pentaaza-acenaphthylen-1-yl)-2-hydroxymethyl-tetrahydro-furan-3-ol], over 100 µM.

Another assay is described as follows: Antiviral activity was tested in cells acutely infected with HIV-1 Reverse transcriptase.
Consider `CN1N=C(N)c2cn(C3O[C@H](CO)[C@H]4O[C@H]34)c3ncnc1c23` (stereo partly specified) [[4-(3-Amino-5-methyl-5H-1,4,5,6,8-pentaaza-acenaphthylen-1-yl)-3,6-dioxa-bicyclo[3.1.0]hex-2-yl]-methanol(2',3'-epoxyTCN)], for which the IC50 was over 100 µM.
